Experimental data from PMC8571951, “An activity‐based bioprobe differentiates a novel small molecule inhibitor from a LOXL2 antibody and provides renewed promise for anti‐fibrotic therapeutic strategies” (Clinical and Translational Medicine, 2021).

Tests used:
Format in all cases: biochemical
LOXL3 = target: T1, LOXL3 (Homo sapiens, UniProt P58215); assay: Jump dilution assay, LOXL3; conditions: 10 × IC50 for 30 min, diluted 100x
T1 sequence (P58215 26-753): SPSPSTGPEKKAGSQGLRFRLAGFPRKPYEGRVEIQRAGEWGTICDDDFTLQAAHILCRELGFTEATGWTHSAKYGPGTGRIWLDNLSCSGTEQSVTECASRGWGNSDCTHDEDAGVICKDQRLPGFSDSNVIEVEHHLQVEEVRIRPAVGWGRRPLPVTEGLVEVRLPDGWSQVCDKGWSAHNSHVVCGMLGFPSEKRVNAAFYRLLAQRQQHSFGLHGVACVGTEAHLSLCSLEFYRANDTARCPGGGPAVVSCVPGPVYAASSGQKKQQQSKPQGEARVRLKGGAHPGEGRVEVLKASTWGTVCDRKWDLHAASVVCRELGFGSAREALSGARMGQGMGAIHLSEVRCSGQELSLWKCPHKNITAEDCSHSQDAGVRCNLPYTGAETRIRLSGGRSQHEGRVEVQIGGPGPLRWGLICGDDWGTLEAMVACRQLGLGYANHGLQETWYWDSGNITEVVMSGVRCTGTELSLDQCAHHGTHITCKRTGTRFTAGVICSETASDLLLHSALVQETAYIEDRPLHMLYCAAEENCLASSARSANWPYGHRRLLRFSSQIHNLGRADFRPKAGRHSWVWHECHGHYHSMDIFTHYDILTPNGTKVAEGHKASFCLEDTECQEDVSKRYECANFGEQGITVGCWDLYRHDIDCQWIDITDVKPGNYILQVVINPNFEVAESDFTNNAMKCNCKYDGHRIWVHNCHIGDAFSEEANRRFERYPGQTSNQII
Text: (§1) FIGURE 1 Characteristics of the activity‐based probe (ABP) PXS‐5878. (A) Chemical structure of PXS‐5878, with functional subunits denoted with different colours. The fluoroallylamine moiety (blue) was designed to interact with the lysine tyrosylquinone (LTQ) co‐factor within the lysyl oxidase active sites. An extended linker (green) was incorporated to provide optimal separation between the reactive functional group and the tag, avoiding unfavourable steric hindrance. Biotin was selected as a tag, with higher sensitivity found to be achieved using a double tag (red), resulting in PXS‐5878 as the preferred ABP. (B) Concentration‐dependent inhibition of recombinant human (rh) lysyl oxidase‐like 1‐4 (LOXL1‐4) and native bovine LOX in a standard Amplex Red assay with 30 min pre‐incubation; n = 3–4 independent experiments, standard error of mean (SEM). Native bovine LOX was used as a surrogate for human LOX as both enzymes have similar pharmacology for fluoroallylamines.[2], [9] (C) Irreversible nature of PXS‐5878 enzyme inhibition confirmed using a jump dilution assay. Enzyme (rh LOXL1, rh LOXL2 or LOXL3) was pre‐incubated with 10 × IC50 of PXS‐5878 for 30 min, then diluted 100x and remaining activity assessed by Amplex Red assay. […] Each value is an average of three experiments. […]

rh LOXL1 = target: T2, rh LOXL1 (Homo sapiens, UniProt Q08397); assay: Jump dilution assay, rh LOXL1; conditions: 10 × IC50 for 30 min, diluted 100x
T2 sequence (Q08397 96-574): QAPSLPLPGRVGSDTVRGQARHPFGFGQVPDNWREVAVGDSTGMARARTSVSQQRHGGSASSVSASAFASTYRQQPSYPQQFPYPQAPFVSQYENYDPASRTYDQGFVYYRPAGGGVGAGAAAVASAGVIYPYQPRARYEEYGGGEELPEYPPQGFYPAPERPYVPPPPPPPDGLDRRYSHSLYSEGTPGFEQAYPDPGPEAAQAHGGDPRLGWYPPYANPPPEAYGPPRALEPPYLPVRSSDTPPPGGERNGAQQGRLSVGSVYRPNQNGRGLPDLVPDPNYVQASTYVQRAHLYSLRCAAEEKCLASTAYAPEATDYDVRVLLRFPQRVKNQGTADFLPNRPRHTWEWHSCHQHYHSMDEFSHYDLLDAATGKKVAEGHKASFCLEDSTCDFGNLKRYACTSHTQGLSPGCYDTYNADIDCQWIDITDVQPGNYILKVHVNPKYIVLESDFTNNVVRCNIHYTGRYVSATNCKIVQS
Text: as §1

rh LOXL2 = target: T3, rh LOXL2 (Homo sapiens, UniProt Q9Y4K0); assay: Jump dilution assay, rh LOXL2
T3 sequence (Q9Y4K0 26-774): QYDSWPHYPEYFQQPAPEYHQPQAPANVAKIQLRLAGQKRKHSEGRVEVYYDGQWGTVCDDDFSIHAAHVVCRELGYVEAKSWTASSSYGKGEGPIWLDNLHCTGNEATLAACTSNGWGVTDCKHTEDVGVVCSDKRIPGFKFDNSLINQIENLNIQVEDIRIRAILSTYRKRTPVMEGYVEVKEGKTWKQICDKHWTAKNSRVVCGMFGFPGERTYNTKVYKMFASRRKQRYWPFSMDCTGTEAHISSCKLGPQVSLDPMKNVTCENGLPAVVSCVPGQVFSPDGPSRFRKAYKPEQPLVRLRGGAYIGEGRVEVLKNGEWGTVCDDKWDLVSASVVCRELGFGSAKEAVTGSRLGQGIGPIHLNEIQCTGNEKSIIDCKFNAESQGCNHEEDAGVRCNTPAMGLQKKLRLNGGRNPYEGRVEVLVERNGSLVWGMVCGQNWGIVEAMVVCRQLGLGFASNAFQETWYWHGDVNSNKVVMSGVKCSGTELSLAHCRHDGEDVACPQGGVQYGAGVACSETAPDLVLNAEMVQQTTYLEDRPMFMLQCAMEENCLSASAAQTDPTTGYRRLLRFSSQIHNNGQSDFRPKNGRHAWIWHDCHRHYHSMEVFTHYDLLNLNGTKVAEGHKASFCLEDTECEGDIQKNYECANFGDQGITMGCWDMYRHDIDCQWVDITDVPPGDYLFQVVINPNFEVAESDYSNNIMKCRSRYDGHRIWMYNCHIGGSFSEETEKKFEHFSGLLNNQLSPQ
Text: as §1, with “experiments. (D) Schematic representation of the assay development to detect lysyl oxidase activity by PXS‐5878 using a direct enzyme‐linked assay with lysyl oxidases as the target analyte. HRP: horseradish peroxidase; TMB: 3,3′,5,5′‐tetramethylbenzidine, a chromogenic substrate.” for “experiments.”
For fluoroallylamine-based inhibitors, replacement of fluorine with hydrogen (leading to the corresponding des-fluoro structures) results in a drop in potency and a switch from irreversible to reversible inhibition. […] (B) For PXS-5878, removal of the fluoro moiety in a simplified analogue results in a significant drop in potency for LOXL2, meaning (ir)reversibility cannot be accurately measured.

Row | Recovery of enzyme activity after jump dilution (LOXL3) | Recovery of enzyme activity after jump dilution (rh LOXL1) | Recovery of enzyme activity after jump dilution (rh LOXL2; rh LOXL2, 10 × IC50 for 30 min, diluted 100x) | Mode of inhibition (reversible/irreversible) of LOXL2 (rh LOXL2) | SMILES
1 | Little to no recovery in enzyme activity | Little to no recovery in enzyme activity | Little to no recovery in enzyme activity | – | NC/C=C(\F)CS(=O)(=O)c1cccc(Cn2cc(-c3cc(OCCCc4cn(CCCCC[C@@H]5SC[C@@H]6NC(=O)N[C@@H]65)nn4)cc(OCCCc4cn(CCCCC[C@@H]5SC[C@@H]6NC(=O)N[C@@H]65)nn4)c3)nn2)c1 [PXS‐5878]
2 | – | – | – | reversible inhibitor | CC(C)c1c(Cc2ccc(S(C)(=O)=O)nc2)c2ncccc2n1CC=CCN [des‐fluoro‐PXS‐5338]
